Values of other authors in patent US12379360B2, “Detection system for an electronic nose allowing a physicochemical classification of odours and electronic nose comprising such a system” (COMMISSARIAT À L'ÉNERGIE ATOMIQUE ET AUX ÉNERGIES …, priority 2019, dated 2025).

Experiments:
[1] = pure compound
[2] = n-octanol/water partition coefficient
[3] = scale of R. M. Sweet and D. Eisenberg, reference [4]

For NCCCCCN [DAP, 1,5-diaminopentane], the “n (refractive index)” value [1] is given as 1.458 and the logP [2] is given as −0.6.
For CCN(CC)CC [TEA, triethylamine], the “n (refractive index)” value [1] is listed as 1.401 and the logP [2] is listed as 1.4.
In the case of CCCCCN [n-PA, n-pentylamine], the “n (refractive index)” value [1] is given as 1.411 and the logP [2] is given as 1.5.
For CCCSCCC [DPS, dipropylsulphide], the “n (refractive index)” value [1] is listed as 1.435 and the logP [2] is listed as 0.9.
In the case of NCCCCN [DAB, 1,4-diaminobutane], the “n (refractive index)” value [1] is listed as 1.457 and the logP [2] is listed as −0.9.
For CSC [DMS, dimethylsulphide], the “n (refractive index)” value [1] is given as 1.4487 and the logP [2] is given as 2.7.
For NC(=O)C[C@H](N)C(=O)O [asparagine], the hydrophobicity index [3] is given as −0.74.
For CN(C)C [TMA, trimethylamine], the “n (refractive index)” value [1] is listed as 1.3631 and the logP [2] is listed as 0.3.
In the case of O=C(O)[C@@H]1CCCN1 [proline], the hydrophobicity index [3] is listed as 0.12.
